# Experimental data from article PMC3369921, “Ecto-5′-Nucleotidase: A Candidate Virulence Factor in Streptococcus sanguinis Experimental Endocarditis” (PLoS ONE, 2012).
# Target: T1, ecto-5′-nucleotidase (Nt5e) (Streptococcus sanguinis, UniProt I3RY26)
# T1 construct: native enzyme on whole cells of S. sanguinis strain 133-79
# Test: whole-cell AMPase activity (phosphate release) dose-inhibition and Michaelis-Menten analysis
# Assay type: cell-based
# T1 sequence (I3RY26 entry or part of it): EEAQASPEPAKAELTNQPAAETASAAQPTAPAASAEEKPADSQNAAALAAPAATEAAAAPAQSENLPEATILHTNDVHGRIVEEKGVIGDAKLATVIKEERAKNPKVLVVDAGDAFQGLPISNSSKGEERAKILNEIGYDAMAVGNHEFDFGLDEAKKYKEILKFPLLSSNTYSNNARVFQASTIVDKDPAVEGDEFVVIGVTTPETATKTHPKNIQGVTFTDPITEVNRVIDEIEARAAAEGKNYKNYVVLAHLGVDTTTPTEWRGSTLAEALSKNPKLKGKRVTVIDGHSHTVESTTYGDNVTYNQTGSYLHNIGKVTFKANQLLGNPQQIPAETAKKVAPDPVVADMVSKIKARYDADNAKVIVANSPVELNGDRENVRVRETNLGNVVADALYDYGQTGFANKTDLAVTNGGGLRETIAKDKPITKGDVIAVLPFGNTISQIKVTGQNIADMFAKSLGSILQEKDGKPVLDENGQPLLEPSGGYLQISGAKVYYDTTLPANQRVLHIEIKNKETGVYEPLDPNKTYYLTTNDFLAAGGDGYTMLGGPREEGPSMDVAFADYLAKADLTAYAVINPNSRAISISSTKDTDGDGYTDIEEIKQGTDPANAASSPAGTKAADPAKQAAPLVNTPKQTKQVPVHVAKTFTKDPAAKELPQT
smiles,measurement,value
Nc1ncnc2c1ncn2[C@@H]1O[C@H](COP(=O)(O)CP(=O)(O)O)[C@@H](O)[C@H]1O [APCP],IC50,8.8 ± 3.8 µM
